Source: US6013672A, “Agonists of metabotropic glutamate receptors and uses thereof” (UAB Research Foundation, priority 1997, dated 2000)
Read-outs that look alike come from different tables or passages of the source.

How the values were obtained:
[1] = system: hippocampal astrocytes; assay: Intracellular glutamate content [Glu]i of astrocytes; format: cell-based, rat
Description: For experiments in which [Glu]o concentrations were assessed by the bioluminescence method, cells were maintained in glutamate-depleted medium in the presence or absence of the agonists/antagonist combination of interest. […] After the incubation period, the stimulation media (containing drugs of interest) were aspirated and cells were washed twice with MEM and allowed to remain for 30 to 60 minutes in drug free MEM supplemented with 20 mM glucose prior to taking media samples for glutamate measurements. To assess acute drug effects, untreated cells were washed and the reagent of interest applied in glucose supplemented MEM. Cells were harvested in 0.3 N NaOH and neutralized with 0.3 N HCl. Aliquots were stored in -20° C. for protein and [Glu]i determination. Glutamate standards used for calibration were prepared in MEM (For [Glu]i in 0.15 N NaCl).

[2] = system: hippocampal astrocytes; assay: Extracellular glutamate [Glu]o released by astrocyte cultures (bioluminescence); format: cell-based, rat; settings: for minimal effective concentration: Rattus norvegicus, Astrocyte; for order of potency in mimicking ACPD effect on glutamate release: FIG. 7B; for effect on [Glu]o / glutamate release: cells treated for 24 hours, then MEM; for antagonism of ACPD effects on [Glu]o: applied simultaneously with ACPD; for antagonism of the effect of L-CCG-I on [Glu]o: data not shown; for effect on [Glu]o when Na+ gradient is disrupted: 1.0 mM Ouabain, 1.0/5.0 mM L-AA, 30 minute treatment
[3] = system: hippocampal astrocytes; assay: 3H-D-aspartate (glutamate/aspartate) uptake in astrocytes; format: cell-based, rat; settings: for effect on aspartate uptake: KA or NMDA 1 mM, 24 hours
Description: Uptake procedures were essentially identical to those previously described (Kimelberg et al. 1989; Ye et al., 1996). Briefly, 5-10 minutes before assessing uptake, astrocytes were washed and kept in a solution containing (in mM): NaCl 122, KCl 3, MgSO4 0.4, KH2 PO4 1.2, NaHCO3 25, D-glucose 10, and CaCl2 1.3, at 37° C., bubbled with 5%/95% CO2 /O2. Then the cells were switched to the above solution supplemented with 0.1 mM D-aspartate and 0.4 μCi/ml ^3 H-D-aspartate. Glutamate/aspartate uptake was determined over a 10 or 30 minutes period and was terminated by three quick washes, twice with ice cold 0.29 M sucrose solution with 10 mM Tris Nitrate, 0.5 mM Ca(NO3)2, (pH 7.40 by NaOH) and then with ice cold PBS. Cells were then harvested after a 30 minute incubation in 0.3 N NaOH solution (37° C.) and ^3 H activity was determined in a liquid scintillation counter (Beckman). Total uptake was normalized to protein content to eliminate variability due to cell number. Protein levels were determined using the bicinchoninic acid (BCA) assay (Pierce; Rockford, Ill.).

[4] = system: glial cells; assay: Glial glutamate uptake and extracellular glutamate with MPTP/MPP+ and t-ACPD; format: cell-based; settings: for elevations of extracellular glutamate levels: glial cells
Description: The normally low glutamate levels in the brain are established and maintained in glial cells by non-vesicular uptake of glutamate through a Na^+ -dependent transporter (FIG. 14). Once taken up, glutamate can be converted to glutamine and recycled for neurotransmitter synthesis in neurons (FIG. 14). If glial cells in culture are exposed to high glutamate concentrations (e.g., 100 μM), they will remove it from the extracellular space and essentially "detoxify" the neuronal environment. […] Under those conditions, extracellular glutamate levels are elevated to 7 μM (FIG. 16), which is toxic to most surrounding neurons.
Impaired glial glutamate transport may contribute to the loss of dopaminergic neurons in Parkinson's disease. Thus, stimulation of this pathway would be neuroprotective. A drug and its receptor on glial cells was identified that allows enhanced glutamate detoxification. Specifically, trans-ACPD (trans-1-amino-1,3-cyclopentane dicarboxylic acid) (t-ACPD), a group II metabotropic glutamate receptor agonist, enhanced glial glutamate uptake (FIG. 17). It's actions were 2-fold; (i) it enhanced glutamate uptake by up to 80%, and (ii) it decreased non-specific release of glutamate, effectively trapping glutamate inside glial cells. In fact, the release of glutamate decreased to such a large extent that it almost made the transporter rectify, e.g. allowing only influx and preventing outflow of glutamate (FIG. 18). […] Using antibodies and further pharmacological studies, the receptor that is responsible for these effects has been identified as mGluR2/3.
In Parkinson's disease, it is believed that neurons may die of excitotoxic exposure to glutamate. The present invention determined that MPTP directly effects glutamate uptake into astrocytes (FIG. 21, top left). […] This increased release may be sufficient to explain some of the subsequent neurodegeneration.

[5] = system: dopaminergic neurons; assay: Cell death of dopaminergic neurons induced by glutamate or MPTP; format: cell-based, rat; settings: 0.2 mM
Description: Cell death of dopaminergic neurons induced by glutamate, and the role of glial glutamate transport in protection of cell death at the cellular level were studied as it relates to Parkinson's disease. […] Thus, glutamate concentrations as low as 3-5 μM induced rapid cell death (FIGS. 11 and 12). Glutamate concentrations were also measured in the normal brain. They are typically around 1 μM, below the toxic level for dopaminergic neurons. […] This late onset of glutamate toxicity is compatible with the late onset of Parkinson's disease.

[6] = co-incubation, Forskolin 10 μM, Db-cAMP 0.2 mM

## O=C(O)[C@@H]1CN[C@@H](C(=O)O)C1 (relative stereo) [PDC, 1-trans-pyrrolidine-2,4,-dicarboxylate]
[1]; 70 minutes incubation with 500 μM
  cellular glutamate content: 102.9±12.1 % of control

## N[C@H](C(=O)O)[C@H](O)C(=O)O (relative stereo) [THA, DL-threo-β-hydroxyaspartate]
[2]; 5-2000 μM in glutamate free MEM, 25 and 70 minutes
  glutamate release induced by transportable uptake inhibitor: increased glutamate release from astrocytes in a dose- and time-dependent manner
[2]; glutamate free MEM, read-out: concentration giving significant increases in glutamate release
  minimal effective concentration: > 100 µM
[1]; Rattus norvegicus, Astrocyte, 70 min, 70 minutes incubation with 500 μM, read-out: cellular glutamate content
  activity at 500 µM: 110 ± 14.7%

## N[C@]1(C(=O)O)CC[C@H](C(=O)O)C1 [1R3S-ACPD, (1R,3S)-1-aminocyclopentane-1,3-dicarboxylic acid]
[2]; 24 hours treatment, read-out: concentrations required to achieve any significant effect on glutamate release
  minimal effective concentration: > 50 µM
[3]
  effect on aspartate uptake: No significant effects
[1]; Rattus norvegicus, Astrocyte, 24 h, highest dose used (1 mM), chronic treatment
  activity at 1000 µM: 18.4 ± 0.9%

## N[C@@]1(C(=O)O)CC[C@H](C(=O)O)C1 [1S3S-ACPD, (1S,3S)-1-aminocyclopentane-1,3-dicarboxylic acid]
[2]
  order of potency in mimicking ACPD effect on glutamate release: S-4CPG>1S3R-ACPD>L-CCG-I>1S3S-ACPD=QA
  effect on [Glu]o / glutamate release: reduce [Glu]o in a dose-dependent manner

## N[C@@]1(C(=O)O)CC[C@@H](C(=O)O)C1 [ACPD]
[2]
  persistence of effects (FIG. 6 Off curve): over 10 hours
  preincubation time for maximal effect (FIG. 6 On curve): > 6 h
[2]; 10 hours after ACPD had been washed off
  effect remaining after washout: 50%
[2]; 24 hours treatment, then ACPD free glutamate-depleted medium
  time for effect to return to control levels after washout: about 20 hours
[2]; astrocytes cultured from animals >P10, on average
  reduction in the steady-state [Glu]o: ≈ 5 fold
[2]; astrocytes cultured from younger animals
  reduction in the steady-state [Glu]o: 30-50%
[2]; low Na+/high K+, Ouabain or L-AA
  ACPD modulation of [Glu]o under disrupted Na+ gradient: failed to modulate [Glu]o
[3]
  dose required for enhancement of uptake: ≈ 500 μM
[3]; acute application of up to 3 hours
  acute effect on uptake: ineffective in enhancing uptake
[3]; astrocytes from animals >P9, n=11
  enhancement of uptake: 35.2%±3.8%
[3]; astrocytes from neonatal rat pups, n=14
  enhancement of uptake: 24.5%±2.4%
[3]; hippocampal and spinal cord astrocytes
  enhancement of uptake by region: significant enhancement of uptake

## N[C@H](C(=O)O)c1cc(O)cc(O)c1 [DHPG, (S)-3,5-dihydroxyphenylglycine]
[2]
  effect on [Glu]o / glutamate release: ineffective

## CCCC(=O)Nc1ncnc2c1ncn2[C@@H]1O[C@@H]2COP(=O)(O)O[C@H]2[C@H]1OC(=O)CCC [Db-cAMP, Dibutylyl-cAMP]
[2]; [6]
  effect on ACPD effects on [Glu]o: neither blocked nor facilitated the ACPD effects on [Glu]o
[2]; up to highest concentration tested, 3 mM
  effect on [Glu]o alone: did not significantly change [Glu]o

## CC[C@](N)(CCC(=O)O)C(=O)O [EGLU, (2S)-α-Ethylglutamic acid]
[2]
  antagonism of ACPD effects on [Glu]o: unable to suppress ACPD effects on [Glu]o
  antagonism of the effect of L-CCG-I on [Glu]o: failed to inhibit the effect of other mGluR agonists

## C=C[C@@]1(C)CC(=O)[C@]2(O)[C@@]3(C)[C@@H](O)CCC(C)(C)[C@@H]3[C@H](O)[C@H](OC(C)=O)[C@@]2(C)O1 [Forskolin]
[2]; [6]
  effect on ACPD effects on [Glu]o: neither blocked nor facilitated the ACPD effects on [Glu]o

## C=C(C)[C@H]1CN[C@H](C(=O)O)[C@H]1CC(=O)O [KA]
[2]
  effect on [Glu]o / glutamate release: ineffective
[3]
  effect on aspartate uptake: No significant effects

## N[C@@H](CCCC(=O)O)C(=O)O [L-AA, L-aminoadipic acid]
[2]
  effect on [Glu]o when Na+ gradient is disrupted: elevated [Glu]o

## N[C@@H](CCP(=O)(O)O)C(=O)O [L-AP4, L(+)-2-amino-4-phosphonobutyric acid]
[2]
  effect on [Glu]o / glutamate release: ineffective

## N[C@H](C(=O)O)[C@H]1C[C@@H]1C(=O)O [L-CCG-I, (2S,3S,4S)-2-(carboxycyclopropyl) glycine]
[2]
  order of potency in mimicking ACPD effect on glutamate release: S-4CPG>1S3R-ACPD>L-CCG-I>1S3S-ACPD=QA
  effect on [Glu]o / glutamate release: reduce [Glu]o in a dose-dependent manner

## N[C@@H](CS(=O)O)C(=O)O [L-CSA, L-cystein-sulfinic acid]
[2]
  effect on [Glu]o / glutamate release: ineffective

## C[C@@](N)(C(=O)O)[C@H]1C[C@@H]1C(=O)O [MCCG, (2S,3S,4S)-2-methyl-2-(carboxycyclopropyl)glycine]
[2]
  antagonism of ACPD effects on [Glu]o: unable to suppress ACPD effects on [Glu]o
  antagonism of the effect of L-CCG-I on [Glu]o: failed to inhibit the effect of other mGluR agonists

## C[C@@](N)(C(=O)O)c1ccc(C(=O)O)cc1 [MCPG, (S)-α-methyl-4-carboxyphenylglycine]
[2]
  antagonism of ACPD effects on [Glu]o: unable to suppress ACPD effects on [Glu]o
  antagonism of the effect of L-CCG-I on [Glu]o: failed to inhibit the effect of other mGluR agonists

## C[n+]1ccc(-c2ccccc2)cc1 [MPP^+, 1-methyl-4-phenylpyridinium]
[4]
  extracellular glutamate levels elevated to: 7 µM
  elevations of extracellular glutamate levels: up to 5 fold

## CN1CC=C(c2ccccc2)CC1 [MPTP, 1-methyl-4-phenyl-1-1,2,3,6-tetrahydropyridine]
[4]
  ability of glial cells to detoxify glutamate: compromised in a dose dependent manner
  extracellular glutamate levels elevated to: 7 µM
  elevations of extracellular glutamate levels: up to 5 fold
[5]
  neuronal cell death: wide-spread cell death within less than 24 hours

## CN[C@H](CC(=O)O)C(=O)O [NMDA]
[2]
  effect on [Glu]o / glutamate release: ineffective
[3]
  effect on aspartate uptake: No significant effects

## C[C@@H]1O[C@@H](O[C@H]2C[C@@H](O)[C@]3(CO)[C@H]4[C@H](O)C[C@]5(C)[C@@H](C6=CC(=O)OC6)CC[C@]5(O)[C@@H]4CC[C@]3(O)C2)[C@H](O)[C@H](O)[C@H]1O [Ouabain]
[2]
  effect on [Glu]o when Na+ gradient is disrupted: elevated [Glu]o

## N[C@@H](Cn1oc(=O)[nH]c1=O)C(=O)O [QA, Quisqualic acid]
[2]
  order of potency in mimicking ACPD effect on glutamate release: S-4CPG>1S3R-ACPD>L-CCG-I>1S3S-ACPD=QA
  effect on [Glu]o / glutamate release: reduce [Glu]o in a dose-dependent manner

## N[C@H](C(=O)O)c1ccc(C(=O)O)cc1 [S-4CPG, (S)-4-carboxyphenylglycine]
[2]
  order of potency in mimicking ACPD effect on glutamate release: S-4CPG>1S3R-ACPD>L-CCG-I>1S3S-ACPD=QA
  effect on [Glu]o / glutamate release: reduce [Glu]o in a dose-dependent manner

## C[C@@H]1C[C@@H]([C@H](O)CC2CC(=O)NC(=O)C2)C(=O)[C@@H](C)C1 [cycloheximade, cycloheximide]
[2]; 2 μg/ml
  effect on ACPD induced attenuation of [Glu]o: could not inhibit the ACPD induced attenuation of [Giu]o

## cholera toxin
[2]
  effect on ACPD effects on [Glu]o: neither inhibited nor mimicked ACPD effects

## pertussis toxin
[2]; 0.01-500 ng/ml added 6 hours prior to ACPD
  inhibition of ACPD modulation of [Glu]o: failed to inhibit ACPD modulation
[2]; applied after ACPD had been washed off
  reversal of ACPD modulation of [Glu]o: failed to reverse the modulatory effects of ACPD
